# Patent publication US20140121373A1, “PROCESS FOR PREPARING STABLE POLYMORPHIC FORM OF ERLOTINIB HYDROCHLORIDE” (CADILA HEALTHCARE LIMITED, priority 2011, published 2014)
# Assay: Chemical stability study of the stable form of Erlotinib hydrochloride (description, HPLC impurities, moisture content, assay on storage)
# Type: physicochemical
# Conditions: for Imp-1 (%) (N-(3-Ethynylphenyl)-6-(2-chloroethoxy)-7-(2-methoxyethoxy)-quinazolin-4-amine hydrochloride) / Imp-2 (%) (N-(3-Ethynylphenyl)-7-(2-chloroethoxy)-6-(2-methoxyethoxy)-quinazolin-4-amine hydrochloride): limit 0.15 w/w; for m/c (%): limit 0.5 w/w; for Assay (%), OAB: limit 98.0-102 w/w; for Description: limit White to off white; for HPLC single maximum impurity content / HPLC total impurity content / water content: storage condition not stated
# Method: (Refrigerator), 25° C.±2° C.[…], 30° C.±2° C./65%±5% RH (Real Time) and 40° C.±2° C./75%±5% RH of Erlotinib Hydrochloride
# Differential Scanning Calorimetry (DSC): Melting points are determined by means of a DSC thermogram using a Pyris-1 make Perkin Elmer. DSC (Differential Scanning Calorimetry) is the technique of dynamic differential Calorimetry. Using this technique, the melting temperature can be measured by heating the sample until a thermal, i.e. an endothermic or exothermic, reaction is detected by means of ultrasensitive sensors. The DSC cell/sample chamber was purged with 100 ml/min of ultra-high purity nitrogen. The instrument was calibrated with high purity Indium. The sample was placed into an open aluminum DSC pan and measured against an empty reference pan. About 2 mg of sample being placed into the bottom of the pan and lightly tapped down to ensure good contact with the pan. The instrument was programmed to heat at a heating rate of 10° C./min in the temperature range between 50° C. and 300° C. • Microscope: A Lieca Microscope with Linkam Hot stage microscopy (TMS-94) system with polarized light, CCD camera and Linksys 32 data software. • HPLC: High Performance Liquid Chromatography Separation Module with PDA detector, Make Waters, Model No 2695. • KF: Moisture content was analyzed by using Karl Fisher Autotitrator 795 KFT Titrino make Metrohm.
# [1] = 5° C. ± 3° C. (Refrigerator), Month 1
# [2] = 5° C. ± 3° C. (Refrigerator), Month 2
# [3] = 5° C. ± 3° C. (Refrigerator), Month 3
# [4] = 5° C. ± 3° C. (Refrigerator), Month 6
# [5] = 25° C. ± 2° C./60% ± 5% RH, Month 1
# [6] = 25° C. ± 2° C./60% ± 5% RH, Month 2
# [7] = 25° C. ± 2° C./60% ± 5% RH, Month 3
# [8] = 25° C. ± 2° C./60% ± 5% RH, Month 6
# [9] = 30° C. ± 2° C./65% ± 5% RH (Real Time), Month 1
# [10] = 30° C. ± 2° C./65% ± 5% RH (Real Time), Month 2
# [11] = 30° C. ± 2° C./65% ± 5% RH (Real Time), Month 3
# [12] = 30° C. ± 2° C./65% ± 5% RH (Real Time), Month 6
# [13] = 40° C. ± 2° C./75% ± 5% RH, Month 1
# [14] = 40° C. ± 2° C./75% ± 5% RH, Month 2
# [15] = 40° C. ± 2° C./75% ± 5% RH, Month 3
# [16] = 40° C. ± 2° C./75% ± 5% RH, Month 6
smiles,measurement,setting,value
"C#Cc1cccc(Nc2ncnc3cc(OCCOC)c(OCCOC)cc23)c1.Cl [Erlotinib hydrochloride, 4-(3-Ethynylphenylamino)-6,7-bis(2-methoxyethoxy)-quinazoline]",period over which stable with all impurities in limit,5° C. to 40° C./75% RH storage conditions of the chemical stability table,≥ 6 months
same,Total Imp,[1],0.12 % w/w
same,Imp-1 (%) (N-(3-Ethynylphenyl)-6-(2-chloroethoxy)-7-(2-methoxyethoxy)-quinazolin-4-amine hydrochloride),[1],0.05%
same,Imp-2 (%) (N-(3-Ethynylphenyl)-7-(2-chloroethoxy)-6-(2-methoxyethoxy)-quinazolin-4-amine hydrochloride),[1],0.07%
same,m/c (%),[1],0.16%
same,"Assay (%), OAB",[1],99.5%
same,Description,[1],Complies
same,Total Imp,[2],0.13 % w/w
same,Imp-1 (%) (N-(3-Ethynylphenyl)-6-(2-chloroethoxy)-7-(2-methoxyethoxy)-quinazolin-4-amine hydrochloride),[2],0.05%
same,Imp-2 (%) (N-(3-Ethynylphenyl)-7-(2-chloroethoxy)-6-(2-methoxyethoxy)-quinazolin-4-amine hydrochloride),[2],0.08%
same,m/c (%),[2],0.15%
same,"Assay (%), OAB",[2],99.6%
same,Description,[2],Complies
same,Total Imp,[3],0.13 % w/w
same,Imp-1 (%) (N-(3-Ethynylphenyl)-6-(2-chloroethoxy)-7-(2-methoxyethoxy)-quinazolin-4-amine hydrochloride),[3],0.05%
same,Imp-2 (%) (N-(3-Ethynylphenyl)-7-(2-chloroethoxy)-6-(2-methoxyethoxy)-quinazolin-4-amine hydrochloride),[3],0.08%
same,m/c (%),[3],0.15%
same,"Assay (%), OAB",[3],99.5%
same,Description,[3],Complies
same,Total Imp,[4],0.14 % w/w
same,Imp-1 (%) (N-(3-Ethynylphenyl)-6-(2-chloroethoxy)-7-(2-methoxyethoxy)-quinazolin-4-amine hydrochloride),[4],0.06%
same,Imp-2 (%) (N-(3-Ethynylphenyl)-7-(2-chloroethoxy)-6-(2-methoxyethoxy)-quinazolin-4-amine hydrochloride),[4],0.08%
same,m/c (%),[4],0.15%
same,"Assay (%), OAB",[4],99.8%
same,Description,[4],Complies
same,Total Imp,[5],0.13 % w/w
same,Imp-1 (%) (N-(3-Ethynylphenyl)-6-(2-chloroethoxy)-7-(2-methoxyethoxy)-quinazolin-4-amine hydrochloride),[5],0.05%
same,Imp-2 (%) (N-(3-Ethynylphenyl)-7-(2-chloroethoxy)-6-(2-methoxyethoxy)-quinazolin-4-amine hydrochloride),[5],0.08%
same,m/c (%),[5],0.14%
same,"Assay (%), OAB",[5],99.9%
same,Description,[5],Complies
same,Total Imp,[6],0.13 % w/w
same,Imp-1 (%) (N-(3-Ethynylphenyl)-6-(2-chloroethoxy)-7-(2-methoxyethoxy)-quinazolin-4-amine hydrochloride),[6],0.05%
same,Imp-2 (%) (N-(3-Ethynylphenyl)-7-(2-chloroethoxy)-6-(2-methoxyethoxy)-quinazolin-4-amine hydrochloride),[6],0.08%
same,m/c (%),[6],0.13%
same,"Assay (%), OAB",[6],99.2%
same,Description,[6],Complies
same,Total Imp,[7],0.13 % w/w
same,Imp-1 (%) (N-(3-Ethynylphenyl)-6-(2-chloroethoxy)-7-(2-methoxyethoxy)-quinazolin-4-amine hydrochloride),[7],0.05%
same,Imp-2 (%) (N-(3-Ethynylphenyl)-7-(2-chloroethoxy)-6-(2-methoxyethoxy)-quinazolin-4-amine hydrochloride),[7],0.08%
same,m/c (%),[7],0.14%
same,"Assay (%), OAB",[7],99.3%
same,Description,[7],Complies
same,Total Imp,[8],0.13 % w/w
same,Imp-1 (%) (N-(3-Ethynylphenyl)-6-(2-chloroethoxy)-7-(2-methoxyethoxy)-quinazolin-4-amine hydrochloride),[8],0.05%
same,Imp-2 (%) (N-(3-Ethynylphenyl)-7-(2-chloroethoxy)-6-(2-methoxyethoxy)-quinazolin-4-amine hydrochloride),[8],0.08%
same,m/c (%),[8],0.14%
same,"Assay (%), OAB",[8],99.9%
same,Description,[8],Complies
same,Total Imp,[9],0.14 % w/w
same,Imp-1 (%) (N-(3-Ethynylphenyl)-6-(2-chloroethoxy)-7-(2-methoxyethoxy)-quinazolin-4-amine hydrochloride),[9],0.06%
same,Imp-2 (%) (N-(3-Ethynylphenyl)-7-(2-chloroethoxy)-6-(2-methoxyethoxy)-quinazolin-4-amine hydrochloride),[9],0.08%
same,m/c (%),[9],0.12%
same,"Assay (%), OAB",[9],99.6%
same,Description,[9],Complies
same,Total Imp,[10],0.13 % w/w
same,Imp-1 (%) (N-(3-Ethynylphenyl)-6-(2-chloroethoxy)-7-(2-methoxyethoxy)-quinazolin-4-amine hydrochloride),[10],0.05%
same,Imp-2 (%) (N-(3-Ethynylphenyl)-7-(2-chloroethoxy)-6-(2-methoxyethoxy)-quinazolin-4-amine hydrochloride),[10],0.08%
same,m/c (%),[10],0.15%
same,"Assay (%), OAB",[10],99.4%
same,Description,[10],Complies
same,Total Imp,[11],0.13 % w/w
same,Imp-1 (%) (N-(3-Ethynylphenyl)-6-(2-chloroethoxy)-7-(2-methoxyethoxy)-quinazolin-4-amine hydrochloride),[11],0.05%
same,Imp-2 (%) (N-(3-Ethynylphenyl)-7-(2-chloroethoxy)-6-(2-methoxyethoxy)-quinazolin-4-amine hydrochloride),[11],0.08%
same,m/c (%),[11],0.15%
same,"Assay (%), OAB",[11],99.4%
same,Description,[11],Complies
same,Total Imp,[12],0.14 % w/w
same,Imp-1 (%) (N-(3-Ethynylphenyl)-6-(2-chloroethoxy)-7-(2-methoxyethoxy)-quinazolin-4-amine hydrochloride),[12],0.06%
same,Imp-2 (%) (N-(3-Ethynylphenyl)-7-(2-chloroethoxy)-6-(2-methoxyethoxy)-quinazolin-4-amine hydrochloride),[12],0.08%
same,m/c (%),[12],0.14%
same,"Assay (%), OAB",[12],99.8%
same,Description,[12],Complies
same,Total Imp,[13],0.14 % w/w
same,Imp-1 (%) (N-(3-Ethynylphenyl)-6-(2-chloroethoxy)-7-(2-methoxyethoxy)-quinazolin-4-amine hydrochloride),[13],0.06%
same,Imp-2 (%) (N-(3-Ethynylphenyl)-7-(2-chloroethoxy)-6-(2-methoxyethoxy)-quinazolin-4-amine hydrochloride),[13],0.08%
same,m/c (%),[13],0.15%
same,"Assay (%), OAB",[13],99.3%
same,Description,[13],Complies
same,Total Imp,[14],0.13 % w/w
same,Imp-1 (%) (N-(3-Ethynylphenyl)-6-(2-chloroethoxy)-7-(2-methoxyethoxy)-quinazolin-4-amine hydrochloride),[14],0.05%
same,Imp-2 (%) (N-(3-Ethynylphenyl)-7-(2-chloroethoxy)-6-(2-methoxyethoxy)-quinazolin-4-amine hydrochloride),[14],0.08%
same,m/c (%),[14],0.16%
same,"Assay (%), OAB",[14],99.5%
same,Description,[14],Complies
same,Total Imp,[15],0.13 % w/w
same,Imp-1 (%) (N-(3-Ethynylphenyl)-6-(2-chloroethoxy)-7-(2-methoxyethoxy)-quinazolin-4-amine hydrochloride),[15],0.05%
same,Imp-2 (%) (N-(3-Ethynylphenyl)-7-(2-chloroethoxy)-6-(2-methoxyethoxy)-quinazolin-4-amine hydrochloride),[15],0.08%
same,m/c (%),[15],0.16%
same,"Assay (%), OAB",[15],99.9%
same,Description,[15],Complies
same,Total Imp,[16],0.14 % w/w
same,Imp-1 (%) (N-(3-Ethynylphenyl)-6-(2-chloroethoxy)-7-(2-methoxyethoxy)-quinazolin-4-amine hydrochloride),[16],0.06%
same,Imp-2 (%) (N-(3-Ethynylphenyl)-7-(2-chloroethoxy)-6-(2-methoxyethoxy)-quinazolin-4-amine hydrochloride),[16],0.08%
same,m/c (%),[16],0.17%
same,"Assay (%), OAB",[16],99.4%
same,Description,[16],Complies
same,HPLC single maximum impurity content,Initial,0.08 % w/w
same,HPLC total impurity content,Initial,0.13 % w/w
same,water content,Initial,0.14 % w/w
same,HPLC single maximum impurity content,after 3 months,0.08 % w/w
same,HPLC total impurity content,after 3 months,0.13 % w/w
same,water content,after 3 months,0.14 % w/w
same,HPLC single maximum impurity content,after 6 months,0.08 % w/w
same,HPLC total impurity content,after 6 months,0.13 % w/w
same,water content,after 6 months,0.14 % w/w
